Experimental data published in patent US20110173718A1, “HERBICIDE TOLERANT PLANTS” (SYNGENTA CROP PROTECTION, INC., priority 2008, published 2011).
“And” between values parts separate entries of the source, which are not always exact repeats. Identical values can stand only once.

Experiments:
Assay type in all cases: in vivo
weeds = assay: Glasshouse weed control, HST inhibitors alone and with A22, pre-emergence; settings: 14 DAT
How it was run: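 Weeds grown in glasshouse trays (24-27 C day, 18-21 C night, ~15 h photoperiod) and track-sprayed in 0.2% X77 at […], pre-emergence or post-emergence at about 7-12 d. HPPD inhibitor A22 applied at 2 g/ha alone or mixed with HST herbicides. Damage scored 0–100% at 14 DAT; synergy calculated by Colby formula.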

[1] = system: tobacco plants expressing Wheat HPPD; assay: Glasshouse spray test, wheat HPPD transgenic tobacco; settings: for % damage observed 16 DAT: Wheat HPPD T1; for blch (% bleaching at the meristem relative to control plants) / ht (% height reduction relative to control plants): 100 g, individual T0 lines
Excerpt: Transgenic lines of tobacco, soyabean and corn etc. can be engineered to express various heterologous HPPDs derived from, for example Avena (SEQ ID #26), Wheat (SEQ ID #27), Pseudomonas fluorescens (SEQ ID # 25) and Shewanella colwelliana (SEQ ID #28) as, for example, described in WO 02/46387.
Single copy events amongst the T1 plant lines are identified by their 3:1 segregation ratio (wrt kanamycin and or herbicide) and by quantitative RT-PCR. Seed from the thus selected T1 tobacco (var Samsun) lines are sown in 3 inch diameter pots containing 50% peat, 50% John Innes soil no 3. After growth to the 3 leaf stage, plants are sprayed, as described above, in order to test for herbicide tolerance relative to like-treated non-transgenic tobacco plants. […]
Exactly as described in example 5 of WO 02/46387 the wheat HPPD gene sequence (Embl DD064495) is cloned behind an Arabidopsis Rubisco small subunit (SSU) promoter and in front of a nos gene terminator to produce an SSU Wheat HPPD nos expression cassette' which is cloned into a binary vector and transformed into tobacco to produce a population of 30-50 transgenic events.

[2] = system: tobacco (var Samsun) plantlets on liquid culture medium; assay: HST + HPPD herbicide effects on tobacco seedlings on liquid culture medium; settings: for % Injury (bleaching), mesotrione by itself: 0.75% v/v DMSO, liquid culture, 20 DAT
Procedure: In an alternative herbicide test procedure tobacco (var Samsun) plantlets germinated aseptically in agar made up in 1/3 strength Murashige and Skoog salts medium are transferred after 4 d to float on top of 2.9 ml of sterile liquid culture medium (half strength Murashige and Skoog medium containing 30 mM sucrose) in wells of 12 well plates. Test compounds are added at various doses and bleaching damage is assessed after 14-20 DAT. The plantlets are kept covered under clear perspex and grown at 18° C. (night) and 24° C. (day) under a 1611 day (˜500-900 umol/m^2), 8 h darkness regime Plantlets continue to grow and produce new tissue over the 14-20 DAT period but are bleached and grow less in the presence of controlling concentrations of herbicide.

Structure (SMILES): O=c1c(-c2c(F)ccc(F)c2Cl)c(O)c2nccnc2n1CC(F)F [Compound 2.3]
- BRAPL Obs, % control score (weeds; HST inhibitor rate 15.625 g/ha): 0%
- BRAPL Obs, % control score (weeds; HST inhibitor rate 62.5 g/ha): 2%
- BRAPL Obs, % control score (weeds; HST inhibitor rate 250 g/ha): 40%
- DIGSA Obs, % control score (weeds; HST inhibitor rate 15.625 g/ha): 0%
- DIGSA Obs, % control score (weeds; HST inhibitor rate 62.5 g/ha): 0%
- DIGSA Obs, % control score (weeds; HST inhibitor rate 250 g/ha): 40%
- ECHCG Obs, % control score (weeds; HST inhibitor rate 15.625 g/ha): 0%
- ECHCG Obs, % control score (weeds; HST inhibitor rate 62.5 g/ha): 10%
- ECHCG Obs, % control score (weeds; HST inhibitor rate 250 g/ha): 50%
- PANMI Obs, % control score (weeds; HST inhibitor rate 15.625 g/ha): 0%
- PANMI Obs, % control score (weeds; HST inhibitor rate 62.5 g/ha): 0%
- PANMI Obs, % control score (weeds; HST inhibitor rate 250 g/ha): 50%
- SETFA Obs, % control score (weeds; HST inhibitor rate 15.625 g/ha): 0%
- SETFA Obs, % control score (weeds; HST inhibitor rate 62.5 g/ha): 5%
- SETFA Obs, % control score (weeds; HST inhibitor rate 250 g/ha): 30%
- SIDSP Obs, % control score (weeds; HST inhibitor rate 15.625 g/ha): 0%
- SIDSP Obs, % control score (weeds; HST inhibitor rate 62.5 g/ha): 0%
- SIDSP Obs, % control score (weeds; HST inhibitor rate 250 g/ha): 20%
- % damage observed 16 DAT ([1]; 37 g/ha): 0%
- % damage observed 16 DAT ([1]; 111 g/ha): 0%
- % damage observed 16 DAT ([1]; 333 g/ha): 3%
- % damage observed 16 DAT ([1]; 1000 g/ha): 8%

Structure (SMILES): CS(=O)(=O)c1ccc(C(=O)C2C(=O)CCCC2=O)c([N+](=O)[O-])c1 [Mesotrione, mesotrione, reference compound]
- damage by mesotrione alone ([2]; lower dose of mesotrione used in the mixtures): no visible damage
- % Injury (bleaching), mesotrione by itself ([2]; mesotrione 0.0005 ppm): 0%
- % bleaching, mesotrione by itself ([2]; mesotrione 0.001 ppm, 0.75% DMSO, liquid culture medium, 14 DAT): 5%
- % Injury (bleaching), mesotrione by itself ([2]; mesotrione 0.001 ppm): 20%
- % damage observed 16 DAT ([1]; 37 g/ha): 0%
- % damage observed 16 DAT ([1]; 111 g/ha): 2%
- % damage observed 16 DAT ([1]; 333 g/ha): 0%
- % damage observed 16 DAT ([1]; 1000 g/ha): 13%

Structure (SMILES): CC(C)C(=O)Oc1c(-c2c(F)ccc(Br)c2Cl)c(=O)n(CC(F)F)c2nccnc12 [Compound 2.30]
- blch (% bleaching at the meristem relative to control plants) ([1]; 7 DAT): 35% (5×) and 40% (5×) and 50% (2×) and 60% (2×) and 30% (6×) and 70% (2×) and 10% (2×)
- ht (% height reduction relative to control plants) ([1]; 7 DAT): 50% (5×) and 60% (3×) and 90% (3×) and 70% (7×) and 40% (2×) and 30% (2×) and 20% (2×)
- blch (% bleaching at the meristem relative to control plants) ([1]; 21 DAT): 0% (15×) and 90% (2×) and 70% (5×) and 50% (2×) and 65% and 45%
- ht (% height reduction relative to control plants) ([1]; 21 DAT): 45% (2×) and 85% (3×) and 80% (2×) and 30% and 55% (3×) and 50% (5×) and 40% (3×) and 60% (2×) and 75% and 70% (2×) and 95% and 90%
